Test results taken from patent US20160159940A1, “POLYDENDRONS” (The Univeristy of Liverpool, priority 2013, published 2016).

What was measured:
[1] = Transcellular permeability of Nile Red across Caco-2 cell monolayers; type: in vitro ADME; conditions: human, Caco-2, 1 hour incubation, 1 μM Nile Red, mean of biological triplicate
Procedure: (§1) Transwells were seeded with 3.5×10^4 cells per well and propagated to a monolayer over a 21 day period, during which media in the apical and basolateral wells was changed every other day. Trans-epithelial electrical resistance (TEER) values were monitored until they were >1300Ω. 1 μM of Nile Red polydendron or 1 μM aqueous Nile Red was added to the apical chamber of 4 wells and the basolateral chamber of 4 wells to quantify transport in both Apical to Basolateral (A>B) and Basolateral to Apical (B>A) direction and sampled on an hourly basis over a 4 h time period. Apparent permeability coefficient was then determined by the amount of compound transported over time using the equation: […]
(§2) where (dQ/dt) is the amount per time (nmol·sec^−1), A is the surface area of the filter and C0 is the starting concentration of the donor chamber (1 μM).
(§3) 100 μl of each collected sample was mixed with 900 μl acetone, vortexed, sonicated for 6 minutes and centrifuged at 13300 rpm for 3 minutes. The supernatant was completely dried in a vacuum centrifuge at 30° C. until the dry solid sample was left. This was reconstituted in 150 μl acetonitrile, transferred to a 96-well black walled, flat bottomed plate and measured for fluorescence intensity excitation wavelength 480 nm, emission wavelength 560 nm using a Tecan Genios plate reader (Tecan Magellan, Austria).

Caco-2 cell monolayers = assay: as above; type: in vitro ADME; conditions: 1 hour incubation
Procedure: as §1, §2, §3

Caco-2 cells [2] = assay: MTT assay of Caco-2 cells (cytotoxicity); type: cell-based
Procedure: (§4) Caco-2 cells were purchased from American Type Culture Collection (ATCC, USA) and maintained in Dulbecco's Modified Eagles Medium (DMEM) supplemented with 15% filtered sterile foetal bovine serum. Cells were incubated at 37° C. and 5% CO2 and were routinely sub-cultured every 4 days when 90% confluent. Cell count and viability was determined using a Countess automated cell counter (Invitrogen).
(§5) Caco-2 cells were seeded at a density of 1.0×10^4 cells/100 μl in DMEM supplemented with 15% FBS into each well of a 96 well plate (Nunclon, Denmark) and incubated at 37° C. and 5% CO2. Cells from 4 separate flasks of biological replicates of each cell type were used (N1-4) to improve statistical power. Media was then aspirated from […] and replaced with media containing each polydendron or aqueous Nile Red solution at an equivalent 1 μM Nile Red concentration then diluted 1:1 in media across the plate up to column 11. Column 12 served as a negative control and consisted of media and untreated cells. Following polydendron addition, the plates were incubated for 24 hours or 120 hours at 37° C., 5% CO2 prior to assessment of cytotoxicity.
Following incubation of treated plates for 24 h or 120 h, 20 μl of 5 mg ml^−1 MTT reagent was added to each well and incubated for 2 hours. Subsequently, 100 μL MTT lysis buffer (50% N—N-Dimethylformamide in water containing 20% SDS, 2.5% glacial acetic acid and 2.5% hydrochloric acid, pH 4.7) was added to each well to lyse overnight at 37° C., 5% CO2. Following incubation the absorbance of each well was read using a Tecan Genosis plate reader at 560 nm (Tecan Magellan, Austria).

Caco-2 cells [3] = assay: ATP assay (CellTiter-Glo) of Caco-2 cells (cytotoxicity); type: cell-based
Procedure: as §4, §5
Following incubation of treated plates for 24 h or 120 h, cells were equilibrated to room temperature for approximately 30 minutes. All but 20 μl of media was removed from each well and 20 μl CellTiter-Glo® (Promega, UK) reagent was added. All reagents were made fresh and in accordance with the manufacturer's instructions. Plates were put on an orbital shaker for 10 minutes to mix contents and allow for stabilisation of luminescence signal. Luminescence was then measured using a Tecan Genios plate reader (Tecan Magellan, Austria).

[4] = 24 hour incubation, range of concentrations investigated
[5] = 120 hour incubation, range of concentrations investigated

**Q.** For `CCN(CC)c1ccc2nc3c4ccccc4c(=O)cc-3oc2c1` [aqueous Nile Red, Nile red], which Papp A→B at 1 h, 1 μM ([1]; read-out: Papp Apical > Basolateral) is on record?
**A.** Its Papp A→B at 1 h, 1 μM is 23.7 ×10⁻⁶ cm/s.

**Q.** And the Papp B→A at 1 h, 1 μM ([1]; read-out: Papp Basolateral > Apical)?
**A.** Its Papp B→A at 1 h, 1 μM is 6.38 ×10⁻⁶ cm/s.

**Q.** And the “A > B/B > A ratio” value (Caco-2 cell monolayers)?
**A.** The value was 3.7140.

**Q.** What about the “metabolic turnover of Caco-2 cells compared to untreated cells” value (Caco-2 cells [2]; [4]) of the same compound?
**A.** The value was “did not affect metabolic turnover”.

**Q.** And the EC50 (Caco-2 cells [2]; 120 hour incubation, FIG. 7)?
**A.** The EC50 was “No EC50”.

**Q.** What about the “viability of Caco-2 cells” value (Caco-2 cells [2]; [5]) of the same compound?
**A.** Its value is “did not affect the viability”.

**Q.** And the EC50 (Caco-2 cells [2]; Homo sapiens, Caco-2, 24 hour incubation, FIG. 6, read-out: EC50)?
**A.** The EC50 was 1160 nM.

**Q.** What about the “ATP presence compared to untreated cells” value (Caco-2 cells [3]; [4]) of the same compound?
**A.** Its value is “not affected”.

**Q.** What about the EC50 (Caco-2 cells [3]; 120 hour incubation, FIG. 9) of the same compound?
**A.** Its EC50 is “No EC50”.

**Q.** What about the “viability compared to untreated cells” value (Caco-2 cells [3]; [5]) of the same compound?
**A.** The value was “not affected”.

**Q.** And the EC50 (Caco-2 cells [3]; Homo sapiens, Caco-2, 24 hour incubation, FIG. 8, read-out: EC50)?
**A.** Its EC50 is 1950 nM.
